Laboratory results as given in article PMC10618370, “Mur ligase F as a new target for the flavonoids quercitrin, myricetin, and (–)-epicatechin” (Journal of Computer-Aided Molecular Design, 2023).
Like-named read-outs stand apart in the source and are kept apart here.

Experiments:
E. coli MurC = E. coli MurC (Escherichia coli, UniProt P17952); experiment: MurC inhibition assay (Malachite green); assay type: biochemical; details: 0.25 h, read-out: RA (%) @ 100 µM MurC
Method: (§1) Inhibition of the Mur ligases was determined using the Malachite green assay, with slight modifications. […] In all cases, the final concentration of DMSO was 5% (v/v).
(§2) After incubation for 15 min at 37 °C, the enzyme reaction was terminated by the addition of 100 µM Biomol green reagent®, and the absorbance was measured at 650 nm after 5 min. Experiments to determine the RA run in triplicate. Residual activities were calculated with respect to control assays without the tested compounds, but with the 5% DMSO carrier. The IC50 values were determined by measuring the residual activities at seven different compound concentrations, and they represent the concentration of the compound at which the residual activity was 50%. IC50 values were obtained by plotting the residual enzyme activities against the applied inhibitor concentrations, fitting the experimental data to the 4-parameter Hill equation: Y=Bottom-Top-Bottom/1+10^logIC50-X×HillSlope , where X is the logarithm of the inhibitor concentration, and Y is the residual activity. The IC50 values were determined in three independent experiments. GraphPad Prism 8.2.0 (GraphPad Software, San Diego, CA, USA) was used for the fitting procedure.
(§3) The assay detects the phosphate formed in each enzyme reaction. To avoid any possibility of the compounds inhibiting the enzymes due to aggregation, a detergent (0.005% Triton-X114) was added to the test system.

E. coli MurD = E. coli MurD (Escherichia coli, UniProt P14900); experiment: MurD inhibition assay (Malachite green); assay type: biochemical; details: 0.25 h, read-out: RA (%) @ 100 µM MurD
Method: as §1, §2, §3

E. coli MurE = E. coli MurE (Escherichia coli, UniProt P22188); experiment: MurE inhibition assay (Malachite green); assay type: biochemical; details: 0.25 h, read-out: RA (%) @ 100 µM MurE
Method: as §1, §2, §3

E. coli MurF = E. coli MurF (Escherichia coli, UniProt P11880); experiment: MurF inhibition assay (Malachite green); assay type: biochemical; details: for remaining activity at 100 µM: 0.25 h, residual activity at 100 µM compound, mean ± SD of three independent experiments, read-out: RA (%) @ 100 µM MurF; for IC50: seven compound concentrations, 4-parameter Hill fit, three independent experiments
Method: as §1, §2, §3

E. coli (ATCC 25,922) = experiment: Antibacterial assay, broth microdilution MIC; assay type: cell-based; details: for MIC: Escherichia coli
Method: (§4) Antimicrobial testing was performed by the broth microdilution method in 96-well plates following the Clinical and Laboratory Standards Institute guidelines and European Committee on Antimicrobial Susceptibility Testing recommendations (Clinical and Laboratory Standards Institute). Bacterial suspensions equivalent to 0.5 McFarland turbidity standard were diluted with cation-adjusted Mueller–Hinton broth with TES buffering (ThermoFisher Scientific), for a final inoculum of 10^5 CFU/ mL. Compounds dissolved in DMSO and the inoculum were mixed and incubated for 20 h at 35 °C. […] The MICs were determined against two reference bacterial strains, S. aureus (ATCC 29,213) and E. coli (ATCC 25,922). Tetracycline was used as the positive control on every assay plate, with MICs of 0.5 and 1 µg/mL for S. aureus and E. coli, respectively. All MICs were determined in three independent experiments.

S. aureus (ATCC 29,213) = experiment: Antibacterial assay, broth microdilution MIC; assay type: cell-based; details: for MIC: Staphylococcus aureus
Method: as §4

[1] = residual activity at 100 µM compound, mean ± SD of three independent experiments
[2] = ATCC25, broth microdilution, 20 h at 35 °C, read-out: MIC E.coli
[3] = ATCC29, broth microdilution, 20 h at 35 °C, read-out: MIC S.aureus
[4] = ATCC25, 20 h, read-out: MIC E.coli
[5] = ATCC29, 20 h, read-out: MIC S.aureus

Sequence of E. coli MurC (P17952 whole entry): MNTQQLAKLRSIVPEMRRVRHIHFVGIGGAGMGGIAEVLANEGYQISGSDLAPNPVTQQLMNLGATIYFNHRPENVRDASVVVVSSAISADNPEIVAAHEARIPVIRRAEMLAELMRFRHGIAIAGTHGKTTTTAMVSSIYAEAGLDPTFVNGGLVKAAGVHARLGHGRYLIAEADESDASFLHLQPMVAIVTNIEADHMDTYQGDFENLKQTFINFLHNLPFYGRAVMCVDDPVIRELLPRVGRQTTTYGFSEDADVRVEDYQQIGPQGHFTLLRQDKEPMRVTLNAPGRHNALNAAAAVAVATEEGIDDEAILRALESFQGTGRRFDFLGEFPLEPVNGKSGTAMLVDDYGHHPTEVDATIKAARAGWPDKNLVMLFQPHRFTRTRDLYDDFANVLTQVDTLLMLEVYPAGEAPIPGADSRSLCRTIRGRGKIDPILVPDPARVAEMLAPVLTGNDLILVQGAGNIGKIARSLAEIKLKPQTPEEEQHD
Sequence of E. coli MurE (P22188 whole entry): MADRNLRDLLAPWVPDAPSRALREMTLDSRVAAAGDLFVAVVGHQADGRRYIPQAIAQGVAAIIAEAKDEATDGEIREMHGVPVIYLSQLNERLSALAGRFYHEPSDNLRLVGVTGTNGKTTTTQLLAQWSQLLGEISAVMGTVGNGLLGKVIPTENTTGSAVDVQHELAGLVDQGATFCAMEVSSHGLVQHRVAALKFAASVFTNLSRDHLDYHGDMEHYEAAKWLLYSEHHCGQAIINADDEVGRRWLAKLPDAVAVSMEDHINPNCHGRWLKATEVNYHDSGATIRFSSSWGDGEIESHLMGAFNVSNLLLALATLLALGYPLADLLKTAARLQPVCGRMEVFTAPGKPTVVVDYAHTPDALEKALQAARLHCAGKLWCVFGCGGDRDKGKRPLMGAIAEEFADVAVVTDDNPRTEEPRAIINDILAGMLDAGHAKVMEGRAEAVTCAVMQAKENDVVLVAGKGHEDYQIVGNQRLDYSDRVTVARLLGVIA
Sequence of E. coli MurF (P11880 whole entry): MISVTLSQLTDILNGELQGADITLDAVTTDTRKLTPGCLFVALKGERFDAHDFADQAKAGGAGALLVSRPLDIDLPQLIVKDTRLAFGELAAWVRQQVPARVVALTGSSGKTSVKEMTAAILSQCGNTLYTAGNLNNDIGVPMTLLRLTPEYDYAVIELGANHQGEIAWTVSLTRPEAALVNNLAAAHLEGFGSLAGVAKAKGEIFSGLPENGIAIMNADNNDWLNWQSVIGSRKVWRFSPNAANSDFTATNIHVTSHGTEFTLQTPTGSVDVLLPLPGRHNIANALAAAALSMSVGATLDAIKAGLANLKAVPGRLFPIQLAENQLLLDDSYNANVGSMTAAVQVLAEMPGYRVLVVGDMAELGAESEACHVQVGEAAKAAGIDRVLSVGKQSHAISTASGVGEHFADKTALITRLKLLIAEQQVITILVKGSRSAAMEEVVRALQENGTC
Sequence of E. coli MurD (P14900 whole entry): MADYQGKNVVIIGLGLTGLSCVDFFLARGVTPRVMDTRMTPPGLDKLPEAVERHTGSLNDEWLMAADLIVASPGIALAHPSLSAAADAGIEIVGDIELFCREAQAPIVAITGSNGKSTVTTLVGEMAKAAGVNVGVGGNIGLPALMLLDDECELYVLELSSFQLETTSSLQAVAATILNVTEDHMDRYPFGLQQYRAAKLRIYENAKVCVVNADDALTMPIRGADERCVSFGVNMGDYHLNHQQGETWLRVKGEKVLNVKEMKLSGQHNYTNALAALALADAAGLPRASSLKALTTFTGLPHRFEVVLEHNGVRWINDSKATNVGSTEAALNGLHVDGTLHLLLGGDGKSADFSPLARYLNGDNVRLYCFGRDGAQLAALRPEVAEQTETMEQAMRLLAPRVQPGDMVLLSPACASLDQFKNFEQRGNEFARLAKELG

Row | Structure (SMILES) | remaining activity at 100 µM (E. coli MurC; [1]) | remaining activity at 100 µM (E. coli MurD; [1]) | remaining activity at 100 µM (E. coli MurE; [1]) | remaining activity at 100 µM (E. coli MurF) | MIC (E. coli (ATCC 25,922); [2]) | MIC (S. aureus (ATCC 29,213); [3]) | Inhibition of growth of S. aureus (in words) (S. aureus (ATCC 29,213); broth microdilution) | MIC (E. coli (ATCC 25,922); ATCC25, positive control on every assay plate, read-out: MIC E. coli, positive control) | MIC (S. aureus (ATCC 29,213); ATCC29, positive control on every assay plate, read-out: MIC S. aureus, positive control) | remaining activity at 100 µM (E. coli MurC) | remaining activity at 100 µM (E. coli MurD) | remaining activity at 100 µM (E. coli MurE) | MIC (E. coli (ATCC 25,922); [4]) | MIC (S. aureus (ATCC 29,213); [5]) | IC50 (E. coli MurF) | Inhibition of growth of E. coli (in words) (E. coli (ATCC 25,922); broth microdilution) | MIC (S. aureus (ATCC 29,213); ATCC29, broth microdilution, 20 h at 35 °C, read-out: MIC S. aureus)
1 | O=C1C[C@@H](c2ccc(O)cc2)Oc2cc(O)cc(O)c21 [Compound 5] | 97 ± 8% | 100 ± 9% | 98 ± 9% | 87 ± 9% | > 250 µM | > 250 µM |  |  |  |  |  |  |  |  |  |  | 
2 | O=c1cc(-c2ccc(O)c(O)c2)oc2cc(OC3OC(CO)C(O)C(O)C3O)cc(O)c12 (centres unmarked) [Compound 15] | 100 ± 9% | 75 ± 6% | 100% | 92 ± 9% | > 250 µM | > 250 µM |  |  |  |  |  |  |  |  |  |  | 
3 | O=c1c(O[C@@H]2O[C@H](CO)[C@@H](O)[C@H](O)[C@H]2O)c(-c2ccc(O)c(O)c2)oc2cc(O)cc(O)c12 [Compound 8] | 95 ± 9% | 100 ± 9% | 97 ± 8% | 88 ± 9% | > 250 µM | > 250 µM |  |  |  |  |  |  |  |  |  |  | 
4 | O=c1c(O)c(-c2ccccc2)oc2cc(O)cc(O)c12 [Compound 16] | 100 ± 8% | 91 ± 7% | 100 ± 10% | 100 ± 10% | > 250 µM | 250 µM | inhibit the growth |  |  |  |  |  |  |  |  |  | 
5 | CN(C)[C@@H]1C(O)=C(C(N)=O)C(=O)[C@@]2(O)C(O)=C3C(=O)c4c(O)cccc4[C@@](C)(O)[C@H]3C[C@@H]12 [Tetracycline, reference compound] |  |  |  |  |  |  |  | 1 µg/mL | 0.5 µg/mL |  |  |  |  |  |  |  | 
6 | COc1cc(O)c(CC=C(C)C)c2c1C(=O)C[C@@H](c1ccc(O)cc1)O2 [Compound 2] | 86 ± 8% | 100 ± 10% | 77 ± 7% | 78 ± 9% | > 250 µM | 250 µM | inhibit the growth |  |  |  |  |  |  |  |  |  | 
7 | O=c1c(O)c(-c2ccc(O)c(O)c2)oc2cc(O)cc(O)c12 [Compound 14, Quercetin] |  |  |  |  | > 250 µM | 250 µM | inhibit the growth |  |  | 41 ± 5% | 43 ± 6% | 28 ± 4% |  |  |  |  | 
8 | Oc1cc(O)c2c(c1)O[C@H](c1ccc(O)c(O)c1)[C@@H](O)C2 [Compound 22, (+)-catechin] | 100 ± 10% | 93 ± 8% | 88 ± 8% | 100 ± 10% | > 250 µM | > 250 µM |  |  |  |  |  |  |  |  |  |  | 
9 | COc1cc([C@@H]2[C@H]3CO[C@@]4(O)C(=O)[C@@H]2C=C([C@H]2Oc5cc(O)cc(O)c5C(=O)[C@@H]2O)[C@@H]34)ccc1O [Compound 24, silydianin] | 100 ± 7% | 95 ± 9% | 93 ± 9% | 99 ± 7% | > 250 µM | > 250 µM |  |  |  |  |  |  |  |  |  |  | 
10 | O=c1cc(-c2ccccc2)oc2cc(O)cc(O)c12 [Compound 17] | 100 ± 10% | 71 ± 9% | 83 ± 8% | 100 ± 8% | > 250 µM | > 250 µM |  |  |  |  |  |  |  |  |  |  | 
11 | COc1cc(O)c2c(=O)c(O)c(-c3ccc(O)c(O)c3)oc2c1 [Compound 13] | 66 ± 7% | 71 ± 8% | 82 ± 8% | 51 ± 6% | > 250 µM | > 250 µM |  |  |  |  |  |  |  |  |  |  | 
12 | COc1cc(OC)c2c(=O)cc(-c3ccc(OC)c(OC)c3)oc2c1 [Compound 19] | 100 ± 9% | 100 ± 10% | 100 ± 9% | 100 ± 9% |  |  |  |  |  |  |  |  | > 250 µM | > 250 µM |  |  | 
13 | CC1OC(Oc2c(-c3cc(O)c(O)c(O)c3)oc3cc(O)cc(O)c3c2=O)C(O)C(O)C1O (centres unmarked) [Compound 11] | 97 ± 7% | 89 ± 7% | 100 ± 10% | 86 ± 9% | > 250 µM | > 250 µM |  |  |  |  |  |  |  |  |  |  | 
14 | O=c1c(O)c(-c2cc(O)c(O)c(O)c2)oc2cc(O)cc(O)c12 [Compound 12, myricetin] | 87 ± 8% | 87 ± 9% | 66 ± 7% |  | > 250 µM | > 250 µM | inactive |  |  |  |  |  |  |  | 139 ± 13 µM | inactive | 
15 | C[C@@H]1O[C@@H](Oc2c(-c3ccc(O)c(O)c3)oc3cc(O)cc(O)c3c2=O)[C@H](O)[C@H](O)[C@H]1O [Compound 10, quercitrin] | 98 ± 10% | 77 ± 9% | 98 ± 9% |  |  |  | inactive |  |  |  |  |  | > 250 µM | > 250 µM | 143 ± 18 µM | inactive | 
16 | O=c1c(OC2OC(CO)C(O)C(O)C2O)c(-c2ccc(O)c(O)c2)oc2cc(O)cc(O)c12 (centres unmarked) [Compound 9] | 89 ± 8% | 100 ± 8% | 100 ± 8% | 90 ± 8% | > 250 µM | > 250 µM |  |  |  |  |  |  |  |  |  |  | 
17 | CC(C)=CCc1c(O)cc(O)c2c1O[C@H](c1ccc(O)cc1)CC2=O [Compound 3] | 95 ± 10% | 100 ± 8% | 87 ± 9% | 71 ± 7% | > 250 µM | 62 µM | inhibit the growth |  |  |  |  |  |  |  |  |  | 
18 | COc1ccc([C@@H]2CC(=O)c3c(O)cc(O)cc3O2)cc1O [Compound 1] | 100 ± 9% | 94 ± 9% | 100 ± 10% | 87 ± 8% | > 250 µM | > 250 µM |  |  |  |  |  |  |  |  |  |  | 
19 | Cc1c(O)cc(O)c2c1O[C@H](c1ccccc1)CC2=O [Compound 4] | 91 ± 9% | 97 ± 8% | 100 ± 9% | 88 ± 9% | > 250 µM | > 250 µM |  |  |  |  |  |  |  |  |  |  | 
20 | COc1cc(O)c(CC=C(C)C)c(O)c1C(=O)/C=C/c1ccc(O)cc1 [Compound 23, xanthohumol] | 86 ± 8% | 91 ± 10% | 82 ± 7% | 72 ± 8% | > 250 µM | 31 µM | inhibit the growth |  |  |  |  |  |  |  |  |  | 31 µM
21 | CC1OC(OCC2OC(Oc3c(-c4ccc(O)c(O)c4)oc4cc(O)cc(O)c4c3=O)C(O)C(O)C2O)C(O)C(O)C1O (centres unmarked) [Compound 7] | 100 ± 10% | 97 ± 9% | 100 ± 10% | 89 ± 10% | > 250 µM | > 250 µM |  |  |  |  |  |  |  |  |  |  | 
